Biological target: T1, bovine GRK5 (Bos taurus, UniProt P43249)
T1 construct: when using full-length kinases as the receptor[37] instead of isolated kinase domains; made in house
Assay: Primary DSF inhibitor screen, GRK5
Type: binding
Details: 10 μM compound, 2 μM kinase, relative to DMSO control; for ΔTm at 10 µM: read-out: ΔTm, primary screen, GRK5

T1 sequence (P43249 whole entry, the tested form may be a part): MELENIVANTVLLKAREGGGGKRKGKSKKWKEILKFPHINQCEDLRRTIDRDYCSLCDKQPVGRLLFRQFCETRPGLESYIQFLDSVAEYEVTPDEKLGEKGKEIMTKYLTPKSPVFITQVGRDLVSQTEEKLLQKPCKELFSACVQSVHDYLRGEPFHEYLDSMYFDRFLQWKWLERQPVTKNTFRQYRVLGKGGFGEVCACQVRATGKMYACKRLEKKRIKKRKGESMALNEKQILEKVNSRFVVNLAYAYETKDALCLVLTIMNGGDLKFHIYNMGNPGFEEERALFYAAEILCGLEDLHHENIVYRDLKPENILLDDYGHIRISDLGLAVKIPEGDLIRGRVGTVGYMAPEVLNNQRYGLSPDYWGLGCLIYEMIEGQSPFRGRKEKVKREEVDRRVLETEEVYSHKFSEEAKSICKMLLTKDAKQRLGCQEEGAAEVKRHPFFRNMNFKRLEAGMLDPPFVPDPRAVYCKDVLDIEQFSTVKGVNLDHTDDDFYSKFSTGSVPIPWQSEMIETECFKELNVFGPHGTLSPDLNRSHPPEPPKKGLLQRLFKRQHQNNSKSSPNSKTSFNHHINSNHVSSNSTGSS

| Structure (SMILES) | ΔTm at 10 µM | ΔTm, primary screen, GRK5 |
| --- | --- | --- |
| Cl.Cn1cc(C2=C(c3c4n(c5ccccc35)CCC(CN)C4)C(=O)NC2=O)c2ccccc21 (stereo not drawn) [BIM 10, Bisindolylmaleimide X, HCl] |  | 6.19 °C |
| CN1CC[C@H](c2c(O)cc(O)c3c(=O)cc(-c4ccccc4Cl)oc23)[C@H](O)C1 [Flavopiridol] | 4.13 °C |  |
| O=C1NC(=O)/C(=C/c2ccc(-c3nc4ccccc4s3)o2)S1 [BAS 09687195] |  | 2.87 °C |
| Nc1cc2ncnc(Nc3cccc(Br)c3)c2cc1N [4-[(3-Bromophenyl)amino]-6,7-diaminoquinazoline] |  | 6.16 °C |
| O=c1c(O)c(-c2ccc(O)c(O)c2)oc2cc(O)cc(O)c12 [Quercetin, 3,3',4',5,7-Pentahydroxyflavone] | 10.6 °C |  |

The remaining lines, values ahead:

| ΔTm at 10 µM | ΔTm, primary screen, GRK5 | Structure (SMILES) |
| --- | --- | --- |
| 2.11 °C |  | Fc1cccc(COc2ccc(Nc3ncnc4sc(-c5ccco5)cc34)cc2Cl)c1 [GSK969786A] |
| 2.96 °C |  | NS(=O)(=O)c1ccc(Nc2cc(-c3cccc(O)c3)n[nH]2)cc1 [GW831090X] |
| 3.27 °C |  | O=S(=O)(CCNCc1ccc(-c2ccc3ncnc(Nc4ccc(OCc5cccc(F)c5)c(Cl)c4)c3c2)o1)c1ccccc1 [GW633459A] |
|  | 3.6 °C | Cn1cc(/C=C2\C(=O)Nc3ccc(S(N)(=O)=O)cc32)c2ccccc21 [Syk Inhibitor] |

— publication PMC4301037, “Identification and Structure–Function Analysis of Subfamily Selective G Protein-Coupled Receptor Kinase Inhibitors” (ACS Chemical Biology, 2014)
